Experimental data: patent publication US20250052678A1, “EVALUATION METHOD, EVALUATION DEVICE, AND INFORMATION PROCESSING PROGRAM” (HAMAMATSU PHOTONICS K.K., priority 2021, published 2025)

Experiments:
[1] = system: Human liver cancer-derived cells (HepG2) cell aggregates; experiment: Lipid droplet formation in HepG2 cell aggregates, refractive index distribution measuring method A2 (Example 1); format: cell-based; conditions: sodium oleate 0.5 mM, one day
Description: Human liver cancer-derived cells (HepG2) were cultured for one day in a cell culture vessel (“EZSPHERE” manufactured by AGC-Techno Glass Co., Ltd.) having low-cell-adhesive compartments to prepare cell aggregates. The low-cell-adhesive compartments are provided with a low-protein-adhesive coat. Cell aggregates were formed in a DMEM medium containing 10% fetal bovine serum in the low-cell-adhesive compartments. A portion of the cell aggregates was cultured for one day in a DMEM medium containing 1% fatty acid-free bovine serum albumin instead of fetal bovine serum, with addition of sodium oleate to a final concentration of 0.5 mM, to induce formation of lipid droplets. The remaining portion of the cell aggregates was cultured for an additional day in a DMEM medium containing 10% fetal bovine serum without the addition of oleic acid (control). […] In the obtained refractive index distribution data, a region where the refractive index (n) was greater than 1.337 was determined as a cell aggregate region. […] A region having a refractive index (n) of greater than 1.375 was determined as a lipid droplet region. The area of the lipid droplet region present in the cell aggregate region of interest was measured.

[2] = system: HepG2 cell aggregate (fatty liver model); experiment: Lipid droplet volume ratio by distance from center of gravity in HepG2 cell aggregates, measuring method C (Example 2); format: cell-based, Human
Description: Preparation of cell aggregates, homogenization, and induction of lipid droplet formation were carried out in the same manner as in Example 1. The refractive index distribution data was evaluated in accordance with Embodiment T3 (FIG. 42). The refractive index distribution data was obtained by the refractive index distribution measuring method C. In the obtained refractive index distribution data, the center of gravity C was calculated, and the refractive index distribution data was evaluated based on distances from the center of gravity C. It was divided into concentric circles at intervals of 2.5 μm from the center of gravity C, and the ratio of the volume of lipid droplets present therein was calculated. The lipid droplet region was set as a region having a refractive index n>1.37, cell region of spheroid as a region having a refractive index n>1.34 and a medium region as a region having a refractive index n≤1.34 and the calculation was carried out. The results of the cell aggregate of the oleic acid-treated HepG2 (fatty liver model) and the control (without oleic acid) were compared.

CCCCCCCC/C=C\CCCCCCCC(=O)O [oleic acid]
formation of lipid droplets (structures with high refractive index) ([1]; FIG. 41B): induced the formation of lipid droplets
area of the lipid droplet region per cell aggregate relative to control (without oleic acid) ([1]; lipid droplet region n>1.375, aggregates of maximum diameter 50 to 100 μm): 2.75 times
ratio of the volume of lipid droplets versus control (without oleic acid) ([2]; concentric circles at 2.5 μm intervals from center of gravity C, lipid droplet region n>1.37): greater ratio of the volume of lipid droplets
distance from the center of gravity where many lipid droplets exist ([2]; oleic acid-treated and control alike): about 20 μm
